# Data reported in ChEMBL document CHEMBL3808308, “Synergistic potentiation of (-)-lomaiviticin A cytotoxicity by the ATR inhibitor VE-821” (Bioorg Med Chem Lett, 2016).
# Activity calls are given as the source filed them. No cut-off for these calls is given here.
# How the values were obtained:
# K562 [1] = assay: Potentiation of 0.05 nM (-)-lomaiviticin A-induced cytotoxicity against human K562 cells assessed as combination index at 5 uM after 24 hrs by cell titer-glo luminescence assay; type: functional
# K562 [2] = assay: Potentiation of 0.05 nM (-)-lomaiviticin A-induced cytotoxicity against human K562 cells assessed as combination index at 5 uM after 48 hrs by cell titer-glo luminescence assay; type: functional
# K562 [3] = assay: Potentiation of 5 nM (-)-lomaiviticin A-induced cytotoxicity against human K562 cells assessed as combination index at 5 uM after 24 hrs by cell titer-glo luminescence assay; type: functional
# K562 [4] = assay: Potentiation of 0.25 nM (-)-lomaiviticin A-induced cytotoxicity against human K562 cells assessed as fraction ratio affected at 5 uM after 24 hrs by cell titer-glo luminescence assay; type: functional
# K562 [5] = assay: Potentiation of 0.25 nM (-)-lomaiviticin A-induced cytotoxicity against human K562 cells assessed as combination index at 5 uM after 24 hrs by cell titer-glo luminescence assay; type: functional
# K562 [6] = assay: Potentiation of 0.25 nM (-)-lomaiviticin A-induced cytotoxicity against human K562 cells assessed as combination index at 5 uM after 48 hrs by cell titer-glo luminescence assay; type: functional
# K562 [7] = assay: Potentiation of 0.5 nM (-)-lomaiviticin A-induced cytotoxicity against human K562 cells assessed as combination index at 5 uM after 24 hrs by cell titer-glo luminescence assay; type: functional
# K562 [8] = assay: Potentiation of 2.5 nM (-)-lomaiviticin A-induced cytotoxicity against human K562 cells assessed as fraction ratio affected at 5 uM after 48 hrs by cell titer-glo luminescence assay; type: functional
# K562 [9] = assay: Potentiation of 0.5 nM (-)-lomaiviticin A-induced cytotoxicity against human K562 cells assessed as fraction ratio affected at 5 uM after 24 hrs by cell titer-glo luminescence assay; type: functional
# K562 [10] = assay: Potentiation of 0.05 nM (-)-lomaiviticin A-induced cytotoxicity against human K562 cells assessed as fraction ratio affected at 5 uM after 48 hrs by cell titer-glo luminescence assay; type: functional
# K562 [11] = assay: Potentiation of 0.025 nM (-)-lomaiviticin A-induced cytotoxicity against human K562 cells assessed as combination index at 5 uM after 24 hrs by cell titer-glo luminescence assay; type: functional
# K562 [12] = assay: Cytotoxicity against human K562 cells assessed as decrease in cell viability up to 2.5 to 10 uM after 24 to 48 hrs by cell titer-glo luminescence assay; type: cell-based
# K562 [13] = assay: Potentiation of 0.025 nM (-)-lomaiviticin A-induced cytotoxicity against human K562 cells assessed as fraction ratio affected at 5 uM after 48 hrs by cell titer-glo luminescence assay; type: functional
# K562 [14] = assay: Potentiation of 2.5 nM (-)-lomaiviticin A-induced cytotoxicity against human K562 cells assessed as combination index at 5 uM after 48 hrs by cell titer-glo luminescence assay; type: functional
# K562 [15] = assay: Potentiation of 0.25 nM (-)-lomaiviticin A-induced cytotoxicity against human K562 cells assessed as fraction ratio affected at 5 uM after 48 hrs by cell titer-glo luminescence assay; type: functional
# K562 [16] = assay: Potentiation of 5 nM (-)-lomaiviticin A-induced cytotoxicity against human K562 cells assessed as combination index at 5 uM after 48 hrs by cell titer-glo luminescence assay; type: functional
# K562 [17] = assay: Potentiation of 0.05 nM (-)-lomaiviticin A-induced cytotoxicity against human K562 cells assessed as fraction ratio affected at 5 uM after 24 hrs by cell titer-glo luminescence assay; type: functional
# K562 [18] = assay: Potentiation of 0.5 nM (-)-lomaiviticin A-induced cytotoxicity against human K562 cells assessed as combination index at 5 uM after 48 hrs by cell titer-glo luminescence assay; type: functional
# K562 [19] = assay: Potentiation of 0.025 nM (-)-lomaiviticin A-induced cytotoxicity against human K562 cells assessed as combination index at 5 uM after 48 hrs by cell titer-glo luminescence assay; type: functional
# K562 [20] = assay: Potentiation of 5 nM (-)-lomaiviticin A-induced cytotoxicity against human K562 cells assessed as fraction ratio affected at 5 uM after 24 hrs by cell titer-glo luminescence assay; type: functional
# K562 [21] = assay: Potentiation of 2.5 nM (-)-lomaiviticin A-induced cytotoxicity against human K562 cells assessed as combination index at 5 uM after 24 hrs by cell titer-glo luminescence assay; type: functional
# K562 [22] = assay: Potentiation of 0.5 nM (-)-lomaiviticin A-induced cytotoxicity against human K562 cells assessed as fraction ratio affected at 5 uM after 48 hrs by cell titer-glo luminescence assay; type: functional
# K562 [23] = assay: Potentiation of 5 nM (-)-lomaiviticin A-induced cytotoxicity against human K562 cells assessed as fraction ratio affected at 5 uM after 48 hrs by cell titer-glo luminescence assay; type: functional
# K562 [24] = assay: Potentiation of 2.5 nM (-)-lomaiviticin A-induced cytotoxicity against human K562 cells assessed as fraction ratio affected at 5 uM after 24 hrs by cell titer-glo luminescence assay; type: functional
# K562 [25] = assay: Potentiation of 0.025 nM (-)-lomaiviticin A-induced cytotoxicity against human K562 cells assessed as fraction ratio affected at 5 uM after 24 hrs by cell titer-glo luminescence assay; type: functional
# [26] = Cytotoxicity against human K562 cells assessed as decrease in cell viability after 48 hrs by cell titer-glo luminescence assay; type: cell-based; settings: read-out: ED50
# K562 [27] = assay: Cytotoxicity against human K562 cells assessed as decrease in cell viability after 24 to 48 hrs by cell titer-glo luminescence assay; type: cell-based
# K562 [28] = assay: Induction of apoptosis in human K562 cells assessed as gammaH2AX/53BP1 levels up to 250 pM after 48 hrs by DAPI staining based immunofluorescence microscopy; type: functional, cell-based
# K562 [29] = assay: Potentiation of 250 pM (-)-lomaiviticin A-induced cytotoxicity against human K562 cells assessed as decrease in cell viability at 10 uM after 48 hrs by cell titer-glo luminescence assay; type: functional, cell-based
# U-251 [30] = assay: Selectivity ratio of LC50 for human U251 cells expressing PTEN to LC50 for PTEN-deficient human U251 cells; type: functional
# K562 [31] = assay: Cytotoxicity against human K562 cells assessed as decrease in cell viability at 1 nM after 48 hrs by cell titer-glo luminescence assay; type: functional
# K562 [32] = assay: Induction of DNA double-strand breaks in human K562 cells at 50 to 500 pM after 24 hrs by neutral comet assay; type: functional, cell-based
# U-251 [33] = assay: Cytotoxicity against PTEN-deficient human U251 cells assessed as decrease in cell viability by clonogenic survival assay; type: functional; settings: read-out: LC50 (the source's name)
# [34] = Selectivity ratio of LC50 for chinese hamster VC8 cells expressing BRCA2 to LC50 for BRCA2-deficient chinese hamster VC8 cells; type: functional, Cricetulus griseus
# [35] = Cytotoxicity against BRCA2-deficient chinese hamster VC8 cells assessed as decrease in cell viability by clonogenic survival assay; type: functional; settings: Cricetulus griseus, V-C8; read-out: LC50 (the source's name)
# K562 [36] = assay: Cytotoxicity against human K562 cells assessed as effect on cell viability at 0.05 to 0.5 nM after 24 to 48 hrs by cell titer-glo luminescence assay; type: functional
# K562 [37] = assay: Potentiation of 2.5x10'-5 uM (-)-lomaiviticin A-induced cytotoxicity against human K562 cells assessed as fraction ratio affected at 5 uM after 48 hrs by cell titer-glo luminescence assay; type: functional
# K562 [38] = assay: Potentiation of 0.0025 uM (-)-lomaiviticin A-induced cytotoxicity against human K562 cells assessed as combination index at 5 uM after 24 hrs by cell titer-glo luminescence assay; type: functional
# K562 [39] = assay: Potentiation of 0.0050 uM (-)-lomaiviticin A-induced cytotoxicity against human K562 cells assessed as fraction ratio affected at 5 uM after 48 hrs by cell titer-glo luminescence assay; type: functional
# K562 [40] = assay: Potentiation of 2.5x10'-4 uM (-)-lomaiviticin A-induced cytotoxicity against human K562 cells assessed as combination index at 5 uM after 24 hrs by cell titer-glo luminescence assay; type: functional
# K562 [41] = assay: Potentiation of 0.0025 uM (-)-lomaiviticin A-induced cytotoxicity against human K562 cells assessed as combination index at 5 uM after 48 hrs by cell titer-glo luminescence assay; type: functional
# K562 [42] = assay: Potentiation of 2.5x10'-4 uM (-)-lomaiviticin A-induced cytotoxicity against human K562 cells assessed as combination index at 5 uM after 48 hrs by cell titer-glo luminescence assay; type: functional
# K562 [43] = assay: Potentiation of 0.0050 uM (-)-lomaiviticin A-induced cytotoxicity against human K562 cells assessed as combination index at 5 uM after 24 hrs by cell titer-glo luminescence assay; type: functional
# K562 [44] = assay: Potentiation of 2.5x10'-4 uM (-)-lomaiviticin A-induced cytotoxicity against human K562 cells assessed as fraction ratio affected at 5 uM after 48 hrs by cell titer-glo luminescence assay; type: functional
# K562 [45] = assay: Potentiation of 5x10'-5 uM (-)-lomaiviticin A-induced cytotoxicity against human K562 cells assessed as combination index at 5 uM after 24 hrs by cell titer-glo luminescence assay; type: functional
# K562 [46] = assay: Potentiation of 0.0025 uM (-)-lomaiviticin A-induced cytotoxicity against human K562 cells assessed as fraction ratio affected at 5 uM after 48 hrs by cell titer-glo luminescence assay; type: functional
# K562 [47] = assay: Potentiation of 5x10'-4 uM (-)-lomaiviticin A-induced cytotoxicity against human K562 cells assessed as fraction ratio affected at 5 uM after 48 hrs by cell titer-glo luminescence assay; type: functional
# K562 [48] = assay: Potentiation of 5x10'-4 uM (-)-lomaiviticin A-induced cytotoxicity against human K562 cells assessed as combination index at 5 uM after 48 hrs by cell titer-glo luminescence assay; type: functional
# K562 [49] = assay: Potentiation of 5x10'-5 uM (-)-lomaiviticin A-induced cytotoxicity against human K562 cells assessed as combination index at 5 uM after 48 hrs by cell titer-glo luminescence assay; type: functional
# K562 [50] = assay: Potentiation of 5x10'-4 uM (-)-lomaiviticin A-induced cytotoxicity against human K562 cells assessed as combination index at 5 uM after 24 hrs by cell titer-glo luminescence assay; type: functional
# K562 [51] = assay: Potentiation of 2.5x10'-5 uM (-)-lomaiviticin A-induced cytotoxicity against human K562 cells assessed as combination index at 5 uM after 48 hrs by cell titer-glo luminescence assay; type: functional
# K562 [52] = assay: Potentiation of 0.0050 uM (-)-lomaiviticin A-induced cytotoxicity against human K562 cells assessed as fraction ratio affected at 5 uM after 24 hrs by cell titer-glo luminescence assay; type: functional
# K562 [53] = assay: Potentiation of 2.5x10'-5 uM (-)-lomaiviticin A-induced cytotoxicity against human K562 cells assessed as combination index at 5 uM after 24 hrs by cell titer-glo luminescence assay; type: functional
# K562 [54] = assay: Potentiation of 0.0050 uM (-)-lomaiviticin A-induced cytotoxicity against human K562 cells assessed as combination index at 5 uM after 48 hrs by cell titer-glo luminescence assay; type: functional
compound,measurement,setting,value
O=c1cc(N2CCOCC2)oc2c(-c3cccc4c3sc3ccccc34)cccc12,CI,K562 [1],0.1033
same,CI,K562 [2],0.4461
same,CI,K562 [3],0.9596
same,Ratio,K562 [4],0.1927
same,CI,K562 [5],0.2068
same,CI,K562 [6],0.8337
same,CI,K562 [7],0.3196
same,Ratio,K562 [8],0.9451
same,Ratio,K562 [9],0.2584
same,Ratio,K562 [10],0.5477
same,CI,K562 [11],0.0855
same,Activity,K562 [12],Non-toxic
same,Ratio,K562 [13],0.4881
same,CI,K562 [14],1.147
same,Ratio,K562 [15],0.5832
same,CI,K562 [16],0.6686
same,Ratio,K562 [17],0.1367
same,CI,K562 [18],1.056
same,CI,K562 [19],0.4328
same,Ratio,K562 [20],0.9647
same,CI,K562 [21],0.8596
same,Ratio,K562 [22],0.6811
same,Ratio,K562 [23],0.9912
same,Ratio,K562 [24],0.7163
same,Ratio,K562 [25],0.1436
O=C(CCCCCCC(=O)Nc1ccccc1)NO [VORINOSTAT],CC50 at 48 h,[26],1250 nM
same,Activity,K562 [27],Dose-dependent effect
CC[C@@]1(O[C@H]2C[C@H](OC)[C@@H](O)[C@H](C)O2)[C@H](O[C@H]2C[C@@H](O)[C@H](N(C)C)[C@@H](C)O2)c2c(c3c(=O)c4c(O)ccc(O)c4c(=O)c=3c2=[N+]=[N-])C(=O)[C@@H]1[C@H]1C(=O)c2c(c(=[N+]=[N-])c3c(=O)c4c(O)ccc(O)c4c(=O)c2=3)[C@@H](O[C@H]2C[C@@H](O)[C@H](N(C)C)[C@@H](C)O2)[C@@]1(CC)O[C@H]1C[C@H](OC)[C@@H](O)[C@H](C)O1,Activity,K562 [28],Active
same,Activity,K562 [29],Active
same,RatioLC50,U-251 [30],>11.6
same,Activity,K562 [31],34%
same,Activity,K562 [32],inactive
same,CC50,U-251 [33],0.002 nM
same,RatioLC50,[34],>11.6
same,CC50,[35],0.0015 nM
same,Activity,K562 [36],<5%
O=C(c1cc(Cc2n[nH]c(=O)c3ccccc23)ccc1F)N1CCN(C(=O)C2CC2)CC1 [OLAPARIB],Ratio,K562 [37],0.00109
same,CI,K562 [38],45.0812
same,Ratio,K562 [39],0.557
same,CI,K562 [40],29.7935
same,CI,K562 [41],1.277
same,CI,K562 [42],0.2699
same,CI,K562 [43],1.234
same,Ratio,K562 [44],0.02866
same,CI,K562 [45],28.4346
same,Activity,K562 [12],Non-toxic
same,Ratio,K562 [46],0.3508
same,Ratio,K562 [47],0.1238
same,CI,K562 [48],0.358
same,CI,K562 [49],29.2295
same,CI,K562 [50],31.4921
same,CI,K562 [51],0.138
same,Ratio,K562 [52],0.03638
same,CI,K562 [53],0.182
same,CI,K562 [54],2.076
